Test results as given in PubChem BioAssay AID1919016 (Molecular Pharmacology Branch, DTP, NCI, 2023).
Values belong to the compound of their own block, whether it stands above or below them.

Test system: NCI-H196 complex spheroid growth, percent test/control
Test: Anticancer human tumor NCI-H196 cell line growth inhibition [AhR];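 further: seven days of drug exposure starting three days after plating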;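 on viability, T/C: 100% = DMSO vehicle control wells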
Settings: for IC50: curve of first compound; for viability, T/C: stronger effect = lower value
From the text: Multicellular complex tumor spheroid response to aryl hydrocarbon receptor antagonists in combination with a variety of drugs and investigational agents in selected tumor cell lines
The current study was undertaken to assess response to aryl hydrocarbon receptor antagonists in combination with standard-of-care drugs and investigational agents in solid tumor complex spheroid models. Complex spheroids include a stromal component modeled by human endothelial cells (HUVEC) and fibroblasts modeled by human mesenchymal stem cells (MSCs). The concentration ranges selected for each drug and investigational agent were based upon clinically achievable concentrations if the clinical Cmax of the agent was known.
Compounds. The drugs and investigational agents: BAY 2416964 (NSC825713), GNF351 (NSC835774), CH-223191 (NSC835775), CPI-455 (NSC825282), aza-TdCyd (NSC777586), decitabine (NSC127716), belinostat (NSC758774), entinostat (NSC756642), pevonedistat (NSC761192), tazemetostat (NSC777109), talazoparib (NSC765396), olaparib (NSC753686), selinexor (NSC780203), nedisertib (M3814, NSC802822), bortezomib (NSC756655), venetoclax (NSC766270), doxorubicin (NSC123127), elimusertib (BAY189344, NSC800525), ceralasertib (AZD6738, NSC777638), TAK-243 (NSC785004), alisertib (NSC759677), etoposide (NSC141540), topotecan (NSC609699), eribulin (NSC707389), gemcitabine (NSC613327), carboplatin (NSC241240), cisplatin (NSC119875), and SN-38 (NSC673596) were obtained from the National Cancer Institute (NCI) Developmental Therapeutics Program Chemical Repository (32). The FDA-approved anticancer drug set is available from the Developmental Therapeutics Program at https://dtp.cancer.gov/organization/dscb/obtaining/available plates.htm. […] The stock solutions were prepared in dimethyl sulfoxide (DMSO, Sigma-Aldrich, St. Louis, MO, cat. D2650), except for the platinum compounds which were prepared in saline (Quality Biological, Gaithersburg, MD, cat. 114-055-101), at 800-fold the tested concentration and stored at -70 degrees C prior to their use. All drugs and investigational agents were tested over a range starting from a high concentration at or near the clinical Cmax and decreasing in half-log increments. If the clinical Cmax for an agent had not been determined, the highest concentration tested was 10 microM (Table 1).
Cell Culture. All cells were maintained in an incubator at 37 degrees C and 5% CO2 with 95% humidity. The PDC lines were cultured according to standard operating procedures established by the NCI PDMR (https://pdmr.cancer.gov). Briefly, all PDCs were thawed and cultured in Matrigel-coated flasks prepared with a working solution of 1X Ham's F-12 nutrient mix, without supplementation (Invitrogen, Waltham, MA, cat. 11765054), 100 U/mL penicillin-streptomycin (Invitrogen, cat. 15140122), and 2.5% Matrigel (Corning Inc., Corning, NY, cat. 354248) for the first three passages. All PDCs were cultured in complete DMEM/F-12 media containing advanced DMEM/F-12 (Invitrogen, cat. 12634028), 4.9% defined fetal bovine serum, heat inactivated (HyClone Laboratories Inc., Logan, UT, cat. SH30070.03HI), 389 ng/mL hydrocortisone (Sigma-Aldrich, cat. H4001), 9.7 ng/mL human EGF recombinant protein (Invitrogen, cat. PHG0313), 23.4 microg/mL adenine (Sigma-Aldrich, cat. A2786), 97.3 U/mL penicillin-streptomycin (Invitrogen, cat. 15140122), 1.9 mM L-glutamine (Invitrogen, cat. 25030081), and 9.7 microM Y-27632 dihydrochloride (Tocris Bioscience, Bristol, United Kingdom, cat. 1254). The PDCs were cultured in complete DMEM/F12 media without 10 microM Y-27632 dihydrochloride for at least two passages prior to the screen. The established cell lines NCI-H1341 and […] were cultured in DMEM/F-12, HEPES (Invitrogen, cat. 11330032), 5% defined fetal bovine serum (HyClone Laboratories Inc., cat. SH30070.03), ITS premix universal culture supplement [insulin (5 microg/mL), transferrin (5 microg/mL), and selenious acid (5 ng/mL)] […]

[1] = second compound 0.1 µM, first compound 0.0316 µM
[2] = second compound 0.1 µM, first compound 0.1 µM
[3] = second compound 0.316 µM, first compound 0.0316 µM
[4] = second compound 0.316 µM, first compound 0.1 µM
[5] = second compound 1 µM, first compound 0.0316 µM
[6] = second compound 1 µM, first compound 0.1 µM
[7] = second compound 3.16 µM, first compound 0.0316 µM
[8] = second compound 3.16 µM, first compound 0.1 µM
[9] = second compound 10 µM, first compound 0.0316 µM
[10] = second compound 10 µM, first compound 0.1 µM

IC50 (second compound 0.1 µM): > 100 nM
IC50 (second compound 0.316 µM): > 100 nM
IC50 (second compound 1 µM): > 100 nM
IC50 (second compound 3.16 µM): > 100 nM
IC50 (second compound 10 µM): > 100 nM
Compound: Cn1ncnc1C1c2n[nH]c(=O)c3cc(F)cc(c23)NC1c1ccc(F)cc1 (stereo not given) + CC(CO)NC(=O)c1cc(-c2ccc(Cl)cc2)nn(-c2cnn(C)c2)c1=O
viability, T/C (second compound 0.1 µM, first compound 0.000316 µM): 111%
viability, T/C (second compound 0.1 µM, first compound 0.001 µM): 107%
viability, T/C (second compound 0.1 µM, first compound 0.00316 µM): 103%
viability, T/C (second compound 0.1 µM, first compound 0.01 µM): 102%
viability, T/C [1]: 113%
viability, T/C [2]: 103%
viability, T/C (second compound 0.316 µM, first compound 0.000316 µM): 104%
viability, T/C (second compound 0.316 µM, first compound 0.001 µM): 109%
viability, T/C (second compound 0.316 µM, first compound 0.00316 µM): 102%
viability, T/C (second compound 0.316 µM, first compound 0.01 µM): 99.2%
viability, T/C [3]: 101%
viability, T/C [4]: 105%
viability, T/C (second compound 1 µM, first compound 0.000316 µM): 113%
viability, T/C (second compound 1 µM, first compound 0.001 µM): 112%
viability, T/C (second compound 1 µM, first compound 0.00316 µM): 104%
viability, T/C (second compound 1 µM, first compound 0.01 µM): 105%
viability, T/C [5]: 114%
viability, T/C [6]: 109%
viability, T/C (second compound 3.16 µM, first compound 0.000316 µM): 106%
viability, T/C (second compound 3.16 µM, first compound 0.001 µM): 119%
viability, T/C (second compound 3.16 µM, first compound 0.00316 µM): 118%
viability, T/C (second compound 3.16 µM, first compound 0.01 µM): 104%
viability, T/C [7]: 103%
viability, T/C [8]: 107%
viability, T/C (second compound 10 µM, first compound 0.000316 µM): 122%
viability, T/C (second compound 10 µM, first compound 0.001 µM): 111%
viability, T/C (second compound 10 µM, first compound 0.00316 µM): 110%
viability, T/C (second compound 10 µM, first compound 0.01 µM): 103%
viability, T/C [9]: 108%
viability, T/C [10]: 104%

IC50 (second compound 0.1 µM): 377 nM
IC50 (second compound 0.316 µM): 620 nM
IC50 (second compound 1 µM): 811 nM
IC50 (second compound 3.16 µM): 289 nM
IC50 (second compound 10 µM): > 10000 nM
Compound: Nc1ccn(C2OC(CO)C(O)C2(F)F)c(=O)n1 (stereo not given) + Cc1cncc(-c2nc(NCCc3c[nH]c4ccccc34)c3ncn(C(C)C)c3n2)c1
viability, T/C [1]: 71.4%
viability, T/C [2]: 60.1%
viability, T/C (second compound 0.1 µM, first compound 0.316 µM): 50.4%
viability, T/C (second compound 0.1 µM, first compound 1 µM): 48.8%
viability, T/C (second compound 0.1 µM, first compound 3.16 µM): 43.4%
viability, T/C (second compound 0.1 µM, first compound 10 µM): 52%
viability, T/C [3]: 83.1%
viability, T/C [4]: 62.8%
viability, T/C (second compound 0.316 µM, first compound 0.316 µM): 51.4%
viability, T/C (second compound 0.316 µM, first compound 1 µM): 47.3%
viability, T/C (second compound 0.316 µM, first compound 3.16 µM): 51.3%
viability, T/C (second compound 0.316 µM, first compound 10 µM): 43.8%
viability, T/C [5]: 71.5%
viability, T/C [6]: 60.7%
viability, T/C (second compound 1 µM, first compound 0.316 µM): 49.5%
viability, T/C (second compound 1 µM, first compound 1 µM): 54.3%
viability, T/C (second compound 1 µM, first compound 3.16 µM): 45.5%
viability, T/C (second compound 1 µM, first compound 10 µM): 46.7%
viability, T/C [7]: 81.3%
viability, T/C [8]: 70.6%
viability, T/C (second compound 3.16 µM, first compound 0.316 µM): 48.3%
viability, T/C (second compound 3.16 µM, first compound 1 µM): 45.2%
viability, T/C (second compound 3.16 µM, first compound 3.16 µM): 47.8%
viability, T/C (second compound 3.16 µM, first compound 10 µM): 45.3%
viability, T/C [9]: 76.6%
viability, T/C [10]: 88.1%
viability, T/C (second compound 10 µM, first compound 0.316 µM): 78%
viability, T/C (second compound 10 µM, first compound 1 µM): 53.1%
viability, T/C (second compound 10 µM, first compound 3.16 µM): 54.8%
viability, T/C (second compound 10 µM, first compound 10 µM): 57.1%
